Results from patent US5624932A (priority 1995, dated 1997).
“Also recorded” adds a separate entry of the source.

Columns and labels:
[1] = test system: dorsal root ganglion (DRG) neurons; assay type: cell-based, mouse
morphine-dependent rats = test system: morphine-dependent rats; design: species or system Wistar rats; conditions: rat, in vivo
[2] = test system: morphine-dependent monkeys; design: species or system rhesus monkeys (Macaca mulatta); conditions: rhesus monkey, in vivo
opiate addicts = conditions: in vivo
[3] = test system: morphine-dependent monkeys; conditions: rhesus monkey, in vivo
[4] = test system: chronic opioid-treated DRG neurons; assay type: cell-based, mouse
[5] = test system: dorsal root ganglion (DRG) neurons; conditions: nM-μM; cited from earlier work
[6] = in vivo; cited from earlier work

SMILES: CN1CC[C@]23CCCC[C@H]2[C@H]1Cc1ccc(O)cc13 [Levorphenol]
- Alteration of action potential duration, opioid at high concentration [1]: Shortening
- Alteration of action potential duration, opioid at low concentration [1]: Prolongation

SMILES: CCC(=O)C(CC(C)N(C)C)(c1ccccc1)c1ccccc1 (stereo not shown) [Methadone, methadone]
- Alteration of action potential duration, opioid at high concentration [1]: inhibitory APD-shortening
- Alteration of action potential duration, opioid at low concentration [1]: excitatory APD-prolonging; also recorded: Prolongation
- prevention of body weight loss (morphine-dependent rats): 48.15%
- suppression of other withdrawal symptoms (morphine-dependent rats): 49.4%
- effect on naloxone induced withdrawal symptoms (morphine-dependent rats; ip): suppressed
- effect on body weight loss (morphine-dependent rats; sc): prevent further body weight loss
- second naloxone test, withdrawal symptoms (morphine-dependent rats; sc): less severe withdrawal symptoms in comparison to the morphine group, yet more severe when compare with the DHE group
- significance of effect on body weight loss vs untreated (saline) control (morphine-dependent rats; sc): highly significant
- Scores of withdrawal syndromes, 1st naloxone precipitation (X ± SD) [2]: 17.0 ± 4.6
- Scores of withdrawal syndromes, 2nd naloxone precipitation (X ± SD) [2]: 1.3 ± 1.2
- naloxone precipitation test on day 9 [2]: naloxone precipitated withdrawal symptoms
- naloxone withdrawal symptoms after maintenance or substitution treatment [2]: moderate naloxone withdrawal symptoms
- withdrawal symptoms between injections during substitution [2]: some moderate withdrawal symptoms
- withdrawal symptoms during the first several days of substitution [2]: partially suppressed
- addiction resulting from substitution treatment (opiate addicts): invariably results in transfer to methadone addiction
- rebound of withdrawal symptoms (opiate addicts): often results in the rebound of withdrawal symptoms
- side effects during substitution treatment (opiate addicts): negligible
- time before symptomatic relief (opiate addicts): one to several

SMILES: CN1CC[C@]23c4c5ccc(O)c4O[C@H]2[C@@H](O)C=C[C@H]3[C@H]1C5 [Morphine, morphine]
- prevention of body weight loss (morphine-dependent rats): 43.5%
- suppression of other withdrawal symptoms (morphine-dependent rats): 45.5%
- time to complete recovery of weight loss (morphine-dependent rats; sc): 48 h
- time to reversal of body weight loss (morphine-dependent rats; sc): 3 h
- time after withdrawal at which withdrawal symptoms began [3]: Sixteen

SMILES: C=CCN1CC[C@]23c4c5ccc(O)c4O[C@H]2C(=O)CC[C@@]3(O)[C@H]1C5 [naloxone]
- naloxone effect on APD of chronic opioid-treated DRG neurons [4]: excitatory APD-prolonging effect; also recorded: prolongs the APD
- peak response of naloxone induced withdrawal symptoms (morphine-dependent rats; ip, 4 mg/kg): ≤ 15 min
- time of maximum body weight loss after naloxone precipitation (morphine-dependent rats; ip, 4 mg/kg): 24 h
- time to gradual weight recovery after naloxone precipitation (morphine-dependent rats; ip, 4 mg/kg): 90 h
- effect of naloxone on the APD of naive DRG neurons [5]: does not alter the APD; also recorded: ineffective
- oral or sublingual bioavailability [6]: low
